Laboratory results reported in patent publication US20020137929A1, “1 - (3-heterocyclylphenyl) isothiourea, -isourea, -guanidine and -amidine herbicidal agents” (Intellectual Property Department, BASF Aktiengesellschaft, priority 1998, published 2002).

Experiments:
[1] = system: SAGPY (Arrowhead (Pygmaea)); assay: Preemergence weed control under flooded paddy conditions; format: in vivo, Sagittaria pygmaea; details: rated 3-4 weeks after treatment
In short: (§1)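 Seeds or propagules sown in silt loam kept flooded 1.5-3 cm; compounds in 50/50 acetone/water pipetted into flood water at about 0.0313 to 0.500 kg/ha. Greenhouse; visual 0-9 rating versus untreated control 3-4 weeks after treatment.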

[2] = system: IPOHE (Morningglory, Ivyleaf); assay: Preemergence herbicidal evaluation; format: in vivo, Ipomoea hederacea; details: rated 4-5 weeks after treatment
In short: (§2)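 Each species is sown separately in potting soil over roughly an inch of soil before any emergence. The soil surface then receives an aqueous acetone spray delivering about 0.0156 to 0.500 kg/ha of compound. After four to five weeks, injury is scored from 0 to 9 relative to a control.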

ZEAMX (Corn, Field) = assay: Preemergence herbicidal evaluation; format: in vivo, Zea mays; details: rated 4-5 weeks after treatment
In short: as §2

[3] = system: IPOHE (Morningglory, Ivyleaf); assay: Postemergence herbicidal evaluation; format: in vivo, Ipomoea hederacea; details: postemergence
In short: (§3)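 Rate range approx. 0.0156–0.500 kg/ha. Foliar application at 40 psi to ~2-week seedlings; surfactant 0.5% TWEEN 20 in 50/50 acetone/water. Evaluation 4–5 wk post-treatment by 0–9 visual injury score, means of replicate tests.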

GALAP (Galium) = assay: Postemergence herbicidal evaluation; format: in vivo, Galium aparine; details: postemergence
In short: as §3

MOOVA (Monochoria) = assay: Preemergence weed control under flooded paddy conditions; format: in vivo, Monochoria vaginalis; details: rated 3-4 weeks after treatment
In short: as §1

CASOB (Sicklepod) [4] = assay: Preemergence herbicidal evaluation; format: in vivo, Cassia obtusifolia; details: rated 4-5 weeks after treatment
In short: as §2

CASOB (Sicklepod) [5] = assay: Postemergence herbicidal evaluation; format: in vivo, Cassia obtusifolia; details: postemergence
In short: as §3

[6] = system: GLXMAW (Soybean, Williams); assay: Preemergence herbicidal evaluation; format: in vivo, Glycine max, (L.) Merr. cv Williams; details: rated 4-5 weeks after treatment
In short: as §2

ECHCG (Barnyardgrass) = assay: Preemergence herbicidal evaluation; format: in vivo, Echinochloa crus-galli; details: rated 4-5 weeks after treatment
In short: as §2

AMBEL (Ragweed, Common) = assay: Postemergence herbicidal evaluation; format: in vivo, Ambrosia artemisifolia; details: postemergence
In short: as §3

ABUTH (Velvetleaf) = assay: Preemergence herbicidal evaluation; format: in vivo, Abutilon theophrasti; details: rated 4-5 weeks after treatment
In short: as §2

[7] = system: TRZAWR (Wheat, Winter, cv Riband); assay: Preemergence herbicidal evaluation; format: in vivo, Triticum aestivum; details: rated 4-5 weeks after treatment
In short: as §2

[8] = rate 0.0156 kg/ha, rating scale 0-9
[9] = rate 0.0313 kg/ha, rating scale 0-9
[10] = rate 0.0625 kg/ha, rating scale 0-9
[11] = rate 0.1250 kg/ha, rating scale 0-9
[12] = rate 0.2500 kg/ha, rating scale 0-9

## Cn1c(C(F)(F)F)cc(=O)n(-c2cc(N=C3SCC(=O)N3CC(=O)OCC3CCCCC3)c(Cl)cc2F)c1=O [Compound 123, Cyclohexylmethyl 2-{{2-chloro-5-[3,6-dihydro-3-methyl-2,6-dioxo-4-(trifluoromethyl)-1(2H)-pyrimidinyl]-4-fluorophenyl}imino}-4-oxo-3-thiazolidineacetate]
[1]; 0.0313 kg/ha
  herbicidal effect rating, SAGPY: 5.0
[1]; 0.0625 kg/ha
  herbicidal effect rating, SAGPY: 6.0
[1]; 0.1250 kg/ha
  herbicidal effect rating, SAGPY: 6.0
[1]; 0.2500 kg/ha
  herbicidal effect rating, SAGPY: 8.0
[2]; rate 0.0156 kg/ha
  Preemergence herbicidal rating IPOHE: 0.0
[2]; rate 0.0313 kg/ha
  Preemergence herbicidal rating IPOHE: 0.0
[2]; rate 0.0625 kg/ha
  Preemergence herbicidal rating IPOHE: 0.0
[2]; rate 0.1250 kg/ha
  Preemergence herbicidal rating IPOHE: 7.0
[2]; rate 0.2500 kg/ha
  Preemergence herbicidal rating IPOHE: 9.0
[2]; rate 0.5000 kg/ha
  Preemergence herbicidal rating IPOHE: 9.0
ZEAMX (Corn, Field); rate 0.0156 kg/ha
  Preemergence herbicidal rating ZEAMX: 0.0
ZEAMX (Corn, Field); rate 0.0313 kg/ha
  Preemergence herbicidal rating ZEAMX: 1.0
ZEAMX (Corn, Field); rate 0.0625 kg/ha
  Preemergence herbicidal rating ZEAMX: 1.0
ZEAMX (Corn, Field); rate 0.1250 kg/ha
  Preemergence herbicidal rating ZEAMX: 5.0
ZEAMX (Corn, Field); rate 0.2500 kg/ha
  Preemergence herbicidal rating ZEAMX: 7.0
ZEAMX (Corn, Field); rate 0.5000 kg/ha
  Preemergence herbicidal rating ZEAMX: 7.0
[3]; rate 0.0156 kg/ha
  Herbicidal rating IPOHE: 9.0
[3]; rate 0.0313 kg/ha
  Herbicidal rating IPOHE: 9.0
[3]; rate 0.0625 kg/ha
  Herbicidal rating IPOHE: 9.0
[3]; rate 0.1250 kg/ha
  Herbicidal rating IPOHE: 9.0
GALAP (Galium); rate 0.0156 kg/ha
  Herbicidal rating GALAP: 2.0
GALAP (Galium); rate 0.0313 kg/ha
  Herbicidal rating GALAP: 4.0
GALAP (Galium); rate 0.0625 kg/ha
  Herbicidal rating GALAP: 6.0
GALAP (Galium); rate 0.1250 kg/ha
  Herbicidal rating GALAP: 7.0
MOOVA (Monochoria); 0.0313 kg/ha
  herbicidal effect rating, MOOVA: 6.0
MOOVA (Monochoria); 0.0625 kg/ha
  herbicidal effect rating, MOOVA: 7.0
MOOVA (Monochoria); 0.1250 kg/ha
  herbicidal effect rating, MOOVA: 9.0
MOOVA (Monochoria); 0.2500 kg/ha
  herbicidal effect rating, MOOVA: 9.0
CASOB (Sicklepod) [4]; rate 0.0156 kg/ha
  Preemergence herbicidal rating CASOB: 0.0
CASOB (Sicklepod) [4]; rate 0.0313 kg/ha
  Preemergence herbicidal rating CASOB: 0.0
CASOB (Sicklepod) [4]; rate 0.0625 kg/ha
  Preemergence herbicidal rating CASOB: 0.0
CASOB (Sicklepod) [4]; rate 0.1250 kg/ha
  Preemergence herbicidal rating CASOB: 0.0
CASOB (Sicklepod) [4]; rate 0.5000 kg/ha
  Preemergence herbicidal rating CASOB: 3.0
CASOB (Sicklepod) [5]; rate 0.0156 kg/ha
  Herbicidal rating CASOB: 3.0
CASOB (Sicklepod) [5]; rate 0.0313 kg/ha
  Herbicidal rating CASOB: 3.0
CASOB (Sicklepod) [5]; rate 0.0625 kg/ha
  Herbicidal rating CASOB: 9.0
CASOB (Sicklepod) [5]; rate 0.1250 kg/ha
  Herbicidal rating CASOB: 8.0
[6]; rate 0.0156 kg/ha
  Preemergence herbicidal rating GLXMAW: 0.0
[6]; rate 0.0313 kg/ha
  Preemergence herbicidal rating GLXMAW: 0.0
[6]; rate 0.0625 kg/ha
  Preemergence herbicidal rating GLXMAW: 1.0
[6]; rate 0.1250 kg/ha
  Preemergence herbicidal rating GLXMAW: 4.0
[6]; rate 0.2500 kg/ha
  Preemergence herbicidal rating GLXMAW: 9.0
[6]; rate 0.5000 kg/ha
  Preemergence herbicidal rating GLXMAW: 6.0
ECHCG (Barnyardgrass); rate 0.0156 kg/ha
  Preemergence herbicidal rating ECHCG: 0.0
ECHCG (Barnyardgrass); rate 0.0313 kg/ha
  Preemergence herbicidal rating ECHCG: 0.0
ECHCG (Barnyardgrass); rate 0.0625 kg/ha
  Preemergence herbicidal rating ECHCG: 0.0
ECHCG (Barnyardgrass); rate 0.1250 kg/ha
  Preemergence herbicidal rating ECHCG: 1.0
ECHCG (Barnyardgrass); rate 0.2500 kg/ha
  Preemergence herbicidal rating ECHCG: 4.0
ECHCG (Barnyardgrass); rate 0.5000 kg/ha
  Preemergence herbicidal rating ECHCG: 7.0
AMBEL (Ragweed, Common); rate 0.0156 kg/ha
  Herbicidal rating AMBEL: 9.0
AMBEL (Ragweed, Common); rate 0.0313 kg/ha
  Herbicidal rating AMBEL: 9.0
AMBEL (Ragweed, Common); rate 0.0625 kg/ha
  Herbicidal rating AMBEL: 9.0
AMBEL (Ragweed, Common); rate 0.1250 kg/ha
  Herbicidal rating AMBEL: 9.0
ABUTH (Velvetleaf); rate 0.0156 kg/ha
  Preemergence herbicidal rating ABUTH: 9.0
ABUTH (Velvetleaf); rate 0.0313 kg/ha
  Preemergence herbicidal rating ABUTH: 9.0
ABUTH (Velvetleaf); rate 0.0625 kg/ha
  Preemergence herbicidal rating ABUTH: 9.0
ABUTH (Velvetleaf); rate 0.1250 kg/ha
  Preemergence herbicidal rating ABUTH: 9.0
ABUTH (Velvetleaf); rate 0.2500 kg/ha
  Preemergence herbicidal rating ABUTH: 9.0
ABUTH (Velvetleaf); rate 0.5000 kg/ha
  Preemergence herbicidal rating ABUTH: 9.0
[7]; rate 0.0156 kg/ha
  Preemergence herbicidal rating TRZAWR: 0.0
[7]; rate 0.0313 kg/ha
  Preemergence herbicidal rating TRZAWR: 0.0
[7]; rate 0.0625 kg/ha
  Preemergence herbicidal rating TRZAWR: 0.0
[7]; rate 0.1250 kg/ha
  Preemergence herbicidal rating TRZAWR: 1.0
[7]; rate 0.2500 kg/ha
  Preemergence herbicidal rating TRZAWR: 1.0
[7]; rate 0.5000 kg/ha
  Preemergence herbicidal rating TRZAWR: 1.0

## Cn1c(C(F)(F)F)cc(=O)n(-c2cc(N=C3SCC(=O)N3Cc3cccc(Cl)c3)c(Cl)cc2F)c1=O [Compound 136, 3-{4-Chloro-5-{[3-(m-chlorobenzyl)-4-oxo-2-thiazolidinylidene]amino}-2-fluorophenyl}-1-methyl-6-(trifluoromethyl)-2,4(1H,3H)-pyrimidinedione]
[1]; 0.0313 kg/ha
  herbicidal effect rating, SAGPY: 0.0
[1]; 0.0625 kg/ha
  herbicidal effect rating, SAGPY: 0.0
[1]; 0.1250 kg/ha
  herbicidal effect rating, SAGPY: 3.0
[1]; 0.2500 kg/ha
  herbicidal effect rating, SAGPY: 3.0
[2]; [8]
  Preemergence herbicidal rating IPOHE: 0.0
[2]; [9]
  Preemergence herbicidal rating IPOHE: 0.0
[2]; [10]
  Preemergence herbicidal rating IPOHE: 0.0
[2]; [11]
  Preemergence herbicidal rating IPOHE: 0.0
[2]; [12]
  Preemergence herbicidal rating IPOHE: 0.0
ZEAMX (Corn, Field); [8]
  Preemergence herbicidal rating ZEAMX: 0.0
ZEAMX (Corn, Field); [9]
  Preemergence herbicidal rating ZEAMX: 0.0
ZEAMX (Corn, Field); [10]
  Preemergence herbicidal rating ZEAMX: 0.0
ZEAMX (Corn, Field); [11]
  Preemergence herbicidal rating ZEAMX: 1.0
ZEAMX (Corn, Field); [12]
  Preemergence herbicidal rating ZEAMX: 3.0
[3]; rate 0.0156 kg/ha
  Herbicidal rating IPOHE: 9.0
[3]; rate 0.0313 kg/ha
  Herbicidal rating IPOHE: 9.0
[3]; rate 0.0625 kg/ha
  Herbicidal rating IPOHE: 9.0
GALAP (Galium); rate 0.0156 kg/ha
  Herbicidal rating GALAP: 1.0
GALAP (Galium); rate 0.0313 kg/ha
  Herbicidal rating GALAP: 2.0
GALAP (Galium); rate 0.0625 kg/ha
  Herbicidal rating GALAP: 3.0
MOOVA (Monochoria); 0.0313 kg/ha
  herbicidal effect rating, MOOVA: 3.0
MOOVA (Monochoria); 0.0625 kg/ha
  herbicidal effect rating, MOOVA: 4.0
MOOVA (Monochoria); 0.1250 kg/ha
  herbicidal effect rating, MOOVA: 9.0
MOOVA (Monochoria); 0.2500 kg/ha
  herbicidal effect rating, MOOVA: 9.0
CASOB (Sicklepod) [4]; [8]
  Preemergence herbicidal rating CASOB: 0.0
CASOB (Sicklepod) [4]; [9]
  Preemergence herbicidal rating CASOB: 0.0
CASOB (Sicklepod) [4]; [10]
  Preemergence herbicidal rating CASOB: 0.0
CASOB (Sicklepod) [4]; [11]
  Preemergence herbicidal rating CASOB: 0.0
CASOB (Sicklepod) [4]; [12]
  Preemergence herbicidal rating CASOB: 0.0
CASOB (Sicklepod) [5]; rate 0.0156 kg/ha
  Herbicidal rating CASOB: 1.0
CASOB (Sicklepod) [5]; rate 0.0313 kg/ha
  Herbicidal rating CASOB: 4.0
CASOB (Sicklepod) [5]; rate 0.0625 kg/ha
  Herbicidal rating CASOB: 7.0
[6]; [8]
  Preemergence herbicidal rating GLXMAW: 0.0
[6]; [9]
  Preemergence herbicidal rating GLXMAW: 0.0
[6]; [10]
  Preemergence herbicidal rating GLXMAW: 0.0
[6]; [11]
  Preemergence herbicidal rating GLXMAW: 1.0
[6]; [12]
  Preemergence herbicidal rating GLXMAW: 2.0
ECHCG (Barnyardgrass); [8]
  Preemergence herbicidal rating ECHCG: 0.0
ECHCG (Barnyardgrass); [9]
  Preemergence herbicidal rating ECHCG: 0.0
ECHCG (Barnyardgrass); [10]
  Preemergence herbicidal rating ECHCG: 0.0
ECHCG (Barnyardgrass); [11]
  Preemergence herbicidal rating ECHCG: 0.0
ECHCG (Barnyardgrass); [12]
  Preemergence herbicidal rating ECHCG: 0.0
AMBEL (Ragweed, Common); rate 0.0156 kg/ha
  Herbicidal rating AMBEL: 9.0
AMBEL (Ragweed, Common); rate 0.0313 kg/ha
  Herbicidal rating AMBEL: 9.0
AMBEL (Ragweed, Common); rate 0.0625 kg/ha
  Herbicidal rating AMBEL: 9.0
ABUTH (Velvetleaf); [8]
  Preemergence herbicidal rating ABUTH: 4.0
ABUTH (Velvetleaf); [9]
  Preemergence herbicidal rating ABUTH: 9.0
ABUTH (Velvetleaf); [10]
  Preemergence herbicidal rating ABUTH: 9.0
ABUTH (Velvetleaf); [11]
  Preemergence herbicidal rating ABUTH: 9.0
ABUTH (Velvetleaf); [12]
  Preemergence herbicidal rating ABUTH: 9.0
[7]; [8]
  Preemergence herbicidal rating TRZAWR: 0.0
[7]; [9]
  Preemergence herbicidal rating TRZAWR: 0.0
[7]; [10]
  Preemergence herbicidal rating TRZAWR: 0.0
[7]; [11]
  Preemergence herbicidal rating TRZAWR: 1.0
[7]; [12]
  Preemergence herbicidal rating TRZAWR: 1.0
